The structures appear in SMILES notation. Entries after “also recorded” stand apart in the source; their conditions may differ. Like-named read-outs stand apart in the source and are kept apart here.

In series [1] the test system is LEC. Nature of the series: LEC cell proliferation assay. The format is cell-based, human. To be noted: 10 μM in 0.1% DMSO, 48 hours; for activity at 10 µM: Homo sapiens, 48 h, read-out: LEC proliferation. Here is the method: (§1) Human umbilical vein endothelial cells (HUVEC) were purchased from PromoCell. […] HUVEC and LEC were cultured in endothelial basal medium EBM (Cambrex) supplemented with 20% fetal bovine serum (Invitrogen), antibiotic-antimycotics (100 U/ml penicillin, 100 μg/ml streptomycin, 250 ng/ml amphotericin; Invitrogen). 2 mM L-glutamine (Invitrogen), 10 μg/ml hydrocortisone (Fluka) and 25 μg/ml N^6,2′-O-dibutyryladenosine 3′,5′-cyclic monophosphate sodium salt (Fluka) for up to eleven passages.
(§2) The intensity of fluorescence, which is proportional to the number of viable cells, was measured using a microplate reader (SpectraMax Gemini EM; Molecular Devices). The chemical treatments were performed in five replicates.
(§3) The cell proliferation assays were performed by treating the endothelial cell cultures with compounds at a screening dose of 10 μM in 0.1% DMSO for 48 hours (FIG. 6a; Table 10).

Series [2] has as its system LEC. The series is described as follows: cells. Type of series: cell-based, human. To be noted: for activity at 1 µM: Homo sapiens. Here is the method: as §1
(§4) The effect of the selected chemicals on the formation of tube-like structures was performed as follows. […] After overnight incubation at 37° C. the treated cell cultures were fixed with 4% paraformaldehyde. Each chemical treatment was performed in triplicate and the experiment was repeated at least three times. Three representative images of hotspots with tube-like structures were taken per well using a digital camera (AxioCam MRm, Carl Zeiss) mounted on an inverted microscope (Axiovert 200M, Carl Zeiss). The length of the tube-like structures was measured using the IPLab software (BD Biosciences). For each experimental condition, results are represented as average total tube length (μm) per area (three image fields).
(§5) The effects of the selected compounds on endothelial tube formation was assessed after over treatment of LEC and HUVEC cultures at a compound concentration of 1 μM in 0.1% DMSO. The length of the tube-like structures was measured using the IPLab software.

Series [3] concerns blood vessel development and/or lymphangiogenesis in Xenopus embryos. The format is in vivo, Xenopus laevis. To be noted: for blood vessel development phenotype (apj expression, in words): 20 μM from stage 31, fixed at stage 35/36; for ISV phenotype: intersomitic vessels; for PCV phenotype: posterior cardinal vein; for VVN phenotype: vitelline vein network. Here is the method:
All chemicals were purchased from Sigma and 10-mM stock solutions in DMSO were prepared. Chemicals were used at a final concentration of 20 μM in screening medium to treat homozygous albino Xenopus embryos, which lack natural pigmentation. Chemical treatments of embryos (n=7 per well) was initiated at stage 31 (37 hpf) and terminated at stages 35/36 (50 hpf) or 42 (80 hpf). Embryos were fixed in 4% paraformaldehyde and processed for whole mount in situ hybridization.
Where albino embryos were used, the bleaching step was omitted. Semi-automated whole mount in situ hybridizations were performed using the Biolane HTI machine (Hölle & Hüttner AG, Germany). […] Images were captured using a stereomicroscope (SteREO Lumar V12; Carl Zeiss) equipped with a digital camera (AxioCam Color; Carl Zeiss). Composite figures were organized and labeled using Adobe Photoshop CS2 and Adobe Illustrator CS software.
Edema formation or late-stage lethality may result from excretory system defects, (cardio)vascular and/or lymphatic vascular pathologies. […] Embryos were fixed for in situ hybridization either at stage 35/36 to analyze vasculogenesis and intersomitic vein angiogenesis defects or at stage 42 to evaluate possible defects in lymph vessel development (FIGS. 3-5).

For series [4], the system named is HUVEC. Nature of the series: HUVEC cell proliferation assay. Type of series: cell-based, human. To be noted: 10 μM in 0.1% DMSO, 48 hours; for activity at 10 µM: Homo sapiens, HUVEC, 48 h, read-out: HUVEC proliferation. Here is the method: as §1, §2, §3
Series [5] has as its system HUVEC. Nature of the series: HUVEC tube formation assay. To be noted: 1 μM in 0.1% DMSO; for activity at 1 µM: Homo sapiens, HUVEC. The format is cell-based, human. The protocol:
as §1, §4, §5

In the next series the test system is Xenopus embryos. To be noted: for Lethality: — = no stage of lethality given; for Type of edema Ventral: ‡ = edemas also detected in the gut; for Onset (NF): onset of edema. Put shortly: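 Stage 31 (37 hpf) Xenopus embryos, five per well, exposed to 20 µM compound in 1% DMSO at 23 °C for 4 days. Edema, lethality and other external phenotypes were scored daily by two investigators at stages 39, 41, 45 and 47.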

Setting [6] is: 1 μM in 0.1% DMSO, overnight, read-out: LEC tube formation.
The mark [7] stands for this setting: 1 μM in 0.1% DMSO, read-out: LEC tube formation (tube length).
Setting [8] is: overnight, read-out: HUVEC tube formation.
Setting [9] is: read-out: HUVEC tube formation (tube length).
Setting [10] is: compounds causing edema, 20 μM, 1% DMSO, treatment from stage 31, scored to stage 47.
Where [11] appears, read: 20 μM, 1% DMSO, treatment from stage 31, Nieuwkoop & Faber stage.

On to `CCn1c(=O)c2[nH]c(-c3ccccc3)nc2n(CC)c1=O` [1,3-Diethyl-8-phenylxanthine], for which the activity at 10 µM with LEC [1] was 85 to 115%. The activity at 1 µM with LEC [2] (setting [6]) was in the range of 85 to 115%. For the same molecule, the activity at 1 µM with LEC [2] (setting [7]) turned out to be 90%. Moreover, the “blood vessel development phenotype (apj expression, in words)” value (“blood vessel development phenotype” below) in series [3] is recorded as “hyperplasia of the VVN, while ISV angiogenesis occurred unaffected”. In series [3] (20 μM from stage 31, fixed at stage 42), the “lymph vessel development phenotype (vegfr3 expression, in words)” value is given as “lymphangiogenesis was largely suppressed”. For the same molecule, the ALH phenotype entry in series [3] (anterior lymph heart, Xenopus embryos) was “stunted”. Also, in series [3] (anterior lymph sac, Xenopus embryos), the ALS phenotype entry is “stunted”. For the same molecule, in series [3] (Xenopus embryos), the ISV phenotype result is “normal”, the PCV phenotype entry is given as “normal” and the VVN phenotype entry is given as “hyperplastic”. The PLV phenotype entry in series [3] (posterior lymph vessels, Xenopus embryos) is recorded as “hypoplastic”. Besides, the activity at 10 µM in the series with HUVEC [4] was in the range of 85 to 115%. Also, the activity at 1 µM in the series on HUVEC [5] (setting [8]) fell in the range of 115 to 150%. For the same molecule, the activity at 1 µM in the series on HUVEC [5] (setting [9]) came out at 123%. In addition, in the series with Xenopus embryos (setting [10]), the “Lethality (NF)” value is listed as 45 NF. In the series with Xenopus embryos (embryonic stage), the “Type of edema Pericordial” value was 41/42; the Lethality is 45 embryonic stages according to Nieuwkoop and Faber (NF); the “Type of edema Ventral” value is 41/42. The “Onset (NF)” value in the series on Xenopus embryos (setting [11]) is 41/42.

Turning to `CCOC(=O)C1=C(C)NC(C)=C(C(=O)OC)C1c1cccc(Cl)c1Cl` (stereo not shown) [Felodipine], in the series on LEC [1], the activity at 10 µM was in the range of 85 to 115%. Moreover, the activity at 1 µM in the series on LEC [2] (setting [6]) was 85 to 115%. Moreover, the activity at 10 µM in the series with HUVEC [4] fell in the range of 85 to 115%. In addition, in the series with HUVEC [5] (setting [8]), the activity at 1 µM was 50 to 85%. In addition, the “Lethality (NF)” value in the series on Xenopus embryos (setting [10]) stood at 45 NF. Besides, in the series on Xenopus embryos (embryonic stage), the “Type of edema Pericordial” value was 41/42; the “Type of edema Pronephric” value was 41/42; the Lethality was 45 embryonic stages according to Nieuwkoop and Faber (NF); the “Type of edema Ventral” value is given as 41/42. The “Onset (NF)” value with Xenopus embryos (setting [11]) is on record as 41/42.

Regarding `O=C1Nc2ccc(I)cc2C1=Cc1cc(Br)c(O)c(Br)c1` [GW5074, 3-(3,5-Dibromo-4-hydroxybenzylidine-5-iodo-1,3-dihydro-indol-2-one)], the “effect on LEC tube formation (in words)” value in the series with LEC [2] (1 μM in 0.1% DMSO) was “preferentially blocked tube formation in LEC rather than HUVEC cultures”. The LEC tube formation entry in the series on LEC [2] (1 μM in 0.1% DMSO, overnight) is “− (−, moderate inhibition (50-85% of control):)”. In addition, the “blood vessel development phenotype” value in series [3] is “promoting ectopic, premature angiogenesis; also recorded: the VVN was dysplastic”. Besides, in series [3] (Xenopus embryos), the ISV phenotype entry was “ectopic”, the PCV phenotype entry is listed as “normal” and the VVN phenotype entry was “dyspiastic”. The HUVEC proliferation entry in the series with HUVEC [4] was “O (O, inactive or marginal effects (85-115% of control);)”. Besides, the HUVEC tube formation result in the series on HUVEC [5] (overnight) was “O (O, inactive or marginal effects (85-115% of control);)”. In the series with Xenopus embryos (setting [10]), the “Lethality (NF)” value is recorded as 41/42. In the series on Xenopus embryos (embryonic phenotype in the primary screen), the Embr. phen. entry is “EDE”. Also, in the series with Xenopus embryos (embryonic stage), the “Type of edema Pericordial” value is listed as 33/34 and the Lethality is given as 41/42. In addition, the “Onset (NF)” value in the series with Xenopus embryos (setting [11]) is listed as 33/34.

On to `O=Nc1c(-c2c(O)[nH]c3ccccc23)[nH]c2ccccc12` [Indirubin-3′-oxime], for which the activity at 10 µM lay in the range of 85 to 115% in the series with LEC [1] and 50 to 85% in the series on HUVEC [4]. The activity at 1 µM with LEC [2] (read-out: LEC tube formation) was 85 to 115%; in the series with HUVEC [5] (setting [8]), 50 to 85%. Besides, the “Lethality (NF)” value with Xenopus embryos (Xenopus laevis, in vivo) turned out to be 45 NF. Also, the “scored in the phenotypic Xenopus screens” value in the series with Xenopus embryos (in vivo) is “active”.

Turning to `Cl.c1ccc(CN2CCC3(CCCc4ccccc43)CC2)cc1` [L-687, 384 hydrochloride], the LEC proliferation result in the series with LEC [1] was “O (O, inactive or marginal effects (85-115% of control);)”. Further, in the series with LEC [2] (1 μM in 0.1% DMSO, overnight), the LEC tube formation result was “− (−, moderate inhibition (50-85% of control):)”. Also, in series [3], the “blood vessel development phenotype” value is on record as “did not affect vascular development”. Also, in the series with HUVEC [4], the HUVEC proliferation result is recorded as “+ (+, moderate promotion (>115-150% of control).)”. Moreover, the HUVEC tube formation entry in the series on HUVEC [5] (overnight) was “− (−, moderate inhibition (50-85% of control):)”.

On to `C#CCN1C(C)=C(C(=O)OC)C(c2cccc([N+](=O)[O-])c2)C(C(=O)OCC)=C1C` (stereo not shown) [MRS 1845, N-Propargylnitrendipene], for which the LEC proliferation result with LEC [1] is “O (O, inactive or marginal effects (85-115% of control);)”. For the same molecule, the “effect on LEC tube formation (in words)” value with LEC [2] (1 μM in 0.1% DMSO) is given as “preferentially blocked tube formation in LEC rather than HUVEC cultures”. The LEC tube formation entry with LEC [2] (1 μM in 0.1% DMSO, overnight) is “− (−, moderate inhibition (50-85% of control):)”. For the same molecule, the HUVEC tube formation result with HUVEC [5] (overnight) is “O (O, inactive or marginal effects (85-115% of control);)”. In addition, the “edema or other phenotype in compound-treated Xenopus embryos/tadpoles (in words)” value in the series with Xenopus embryos (20 μM, 1% DMSO, treatment from stage 31) is on record as “enlarged lymph hearts”. Moreover, the “Lethality (NF)” value in the series on Xenopus embryos (setting [10]) was found to be 45 NF. In addition, in the series on Xenopus embryos (embryonic stage), the Lymph heart enlargement was 41/42; the “Type of edema Pericordial” value is listed as 41/42; the “Type of edema Pronephric” value is on record as 41/42; the Lethality was 45 embryonic stages according to Nieuwkoop and Faber (NF). Further, in the series with Xenopus embryos (embryonic stage), the “Type of edema Ventral” value is reported as 41/42. In addition, the “Onset (NF)” value in the series on Xenopus embryos (setting [11]) is 41/42.

For `CC1=C(/C=C/C(C)=C/C=C/C(C)=C/C(=O)O)C(C)(C)CCC1` [Retinoic acid], in the series with LEC [1], the LEC proliferation result was “+ (+, moderate promotion (>115-150% of control).)” and the activity at 10 µM was in the range of 115 to 150%. Further, the activity at 1 µM in the series with LEC [2] (setting [6]) was 50 to 85%. The activity at 1 µM with LEC [2] (setting [7]) fell in the range of 50 to 85%. Further, in the series with HUVEC [4], the HUVEC proliferation entry is listed as “+ (+, moderate promotion (>115-150% of control).)” and the activity at 10 µM lay in the range of 115 to 150%. For the same molecule, the activity at 1 µM in the series on HUVEC [5] (setting [8]) was 50 to 85%. Moreover, in the series with HUVEC [5] (setting [9]), the activity at 1 µM was 50 to 85%. The “Lethality (NF)” value with Xenopus embryos (setting [10]) is reported as 40 NF. Besides, in the series on Xenopus embryos (embryonic stage), the “Type of edema Proctodeal” value was 40 embryonic stages according to Nieuwkoop and Faber (NF); the “Type of edema Pronephric” value is 39 embryonic stages according to Nieuwkoop and Faber (NF); the Lethality is 39 embryonic stages according to Nieuwkoop and Faber (NF). Also, the “Type of edema Cerebral” value in the series on Xenopus embryos (embryonic stage, + = cerebral edema extending dorso-anteriorly and displacing the eyes) was 39+ embryonic stages according to Nieuwkoop and Faber (NF).

For the molecule `Oc1c2ccccc2c2c3c(cccc13)N=N2` [SP600125, 1,9-Pyrazoloanthrone], the activity at 10 µM with LEC [1] and in the series on HUVEC [4] was 85 to 115% in each case. Further, the activity at 1 µM is 50 to 85% in the series on LEC [2] (setting [6]), 59% with LEC [2] (setting [7]), 85 to 115% with HUVEC [5] (setting [8]) and 110% in the series on HUVEC [5] (setting [9]). Moreover, the “Lethality (NF)” value in the series on Xenopus embryos (compounds causing lethality, 20 μM, 1% DMSO, treatment from stage 31, Nieuwkoop & Faber stage) was determined as 41 NF.
